Publication PMC4234468 (PLoS ONE, 2014)

Key:
HA-β2AR [1] = target: T1, HA-β2AR (Homo sapiens, UniProt P07550); experiment: whole-cell radioligand binding assay, [125I]-iodopindolol displacement, HA-β2AR; settings: HEK-293 cells expressing HA-β2AR alone or with IR
T1 construct: host or cells: HEK-293
Procedure: To establish a relationship between the luminescence/fluorescence signals generated by RLuc8 and GFP^2-tagged β2ARs and cell-surface receptor number, radioligand binding assays were carried out on whole cells as previously described [47]. […] An aliquot of cells (∼5×10^5) from each transfection was also transferred into a 60-mm dish for total luminescence/fluorescence measurements as described above. […] Determination of the radioactivity levels was performed in triplicate. Binding parameters were determined from displacement curves generated by a sigmoidal dose-response curve fit (GraphPad Prism 5.0). Receptor density (Bmax), expressed as the receptor number per cell, was calculated as previously described by Ramsay et al. [48]. Whole-cell radioligand binding assays were also performed with cells expressing β2AR alone or in combination with IR.

HA-β2AR [2] = target: T1, HA-β2AR; experiment: HA-β2AR internalization quantified by ELISA in HEK-293 cells; type: cell-based
Procedure: ELISA assays for the measurement of surface-expressed HA-β2AR and quantification of receptor internalization were performed as described previously. Briefly, HEK-293 cells were transiently transfected with either β2AR-RLuc8 alone or β2AR-RLuc8 and IR-GFP^2. One microgram of each receptor was used, and the total amount of cDNA used for transfection was kept uniform by adding empty pcDNA3.1 vector. […] After 48 h, cells were first subjected to a 2-h starvation period, and then were treated as required in HEPES-modified DMEM with 0.1% BSA for 30 min at 37°C before fixing with 4% paraformaldehyde for 20 min at 4°C. Cells were then washed 3 times in PBS and blocked (PBS containing 1% BSA) for 60 min at room temperature. Cells were kept at room temperature for all of the subsequent steps. First, cells were incubated for 2 h with anti-HA antibody at a 1∶600 dilution. After 3 washes, cells were incubated with anti-rat horseradish peroxidase-conjugated antibody at a 1∶1000 dilution. After extensive washing, the reaction was developed using the 3, 3′, 5, 5′-tetra-methylbenzidine (TMB) liquid substrate system. […] The absorbances were measured at 450 nm using the microplate reader Rosys Anthos 2010 (Anthos Labtec Instruments, Wals, Austria). […]
[…]. Data are expressed as the means ± S.E. from three independent experiments performed in triplicate. […]

[3] = system: β2AR in epidermoid carcinoma A431 cells; design: method as in PMID 14709719; settings: cited from earlier work
[4] = system: β2AR and IR receptor complexes; experiment: BRET^2 saturation assay with agonist stimulation, β2AR and IR homo- and heteromers in HEK-293 cells; settings: data not shown
β2AR-RLuc = β2AR-RLuc fusion construct; ref Vrecl et al. [47]; cited from earlier work

Compound	competition for binding against [125I]-iodopindolol (HA-β2AR [1])	amount of surface-expressed β2AR lost to internalization in response to insulin (HA-β2AR [2]) [%]	β2AR internalization (ELISA, Figure S1) (HA-β2AR [2]; insulin 0.1 µM, 30 min, 37°C)	amount of surface-expressed β2AR lost to internalization in response to insulin [3] [%]	change in the BRET^2 signal on agonist stimulation [4]	IC50 (β2AR-RLuc) [nM]
insulin	neither competed for binding	~15	did not induce marked β2AR internalization	~30	did not promote any detectable change	
CC(C)NCC(O)c1ccc(O)c(O)c1 (stereo not shown) [isoproterenol, reference compound]					did not promote any detectable change	
CC(C)NCC(O)COc1cccc2[nH]ccc12 (stereo not shown) [pindolol]						0.94 ± 0.06
